Measured values taken from patent publication US7495088B1, “Modified nucleotide compounds” (Enzo Life Sciences, Inc., priority 1989, dated 2009).

Experiments:
E. coli RNase H = E. coli RNase H (Escherichia coli, UniProt P0A7Y4); details: 2 units RNase H, 60 minutes 37° C.; for ability to form RNase H substrate, 14-mer binding site: 32P-labeled runoff transcripts of pSP65-ALA-D
[1] = tested on: Snake venom phosphodiesterase; details: pH 9
[2] = molecular target: T1, Spleen phosphodiesterase (5'->3' exonuclease) (Bos taurus) (UniProt Q2KJJ8); assay: cleavage_in_vitro
T1 sequence: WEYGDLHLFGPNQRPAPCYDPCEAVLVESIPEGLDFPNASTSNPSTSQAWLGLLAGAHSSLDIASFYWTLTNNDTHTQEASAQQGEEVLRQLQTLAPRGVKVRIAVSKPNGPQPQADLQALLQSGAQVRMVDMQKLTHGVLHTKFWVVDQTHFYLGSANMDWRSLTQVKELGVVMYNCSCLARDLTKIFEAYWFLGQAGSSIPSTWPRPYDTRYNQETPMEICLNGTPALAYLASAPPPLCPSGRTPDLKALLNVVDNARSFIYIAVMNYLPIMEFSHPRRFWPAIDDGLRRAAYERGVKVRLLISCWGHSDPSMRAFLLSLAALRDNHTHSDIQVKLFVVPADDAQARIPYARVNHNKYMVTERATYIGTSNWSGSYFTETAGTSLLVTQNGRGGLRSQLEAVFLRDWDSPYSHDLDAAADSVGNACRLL

[3] = tested on: Bovine spleen phosphodiesterase
[4] = tested on: Worthington venom exonuclease
Bovine spleen DNase II = molecular target: T2, Bovine spleen DNase II (Bos taurus, UniProt P56541)
T2 sequence (P56541 20-365): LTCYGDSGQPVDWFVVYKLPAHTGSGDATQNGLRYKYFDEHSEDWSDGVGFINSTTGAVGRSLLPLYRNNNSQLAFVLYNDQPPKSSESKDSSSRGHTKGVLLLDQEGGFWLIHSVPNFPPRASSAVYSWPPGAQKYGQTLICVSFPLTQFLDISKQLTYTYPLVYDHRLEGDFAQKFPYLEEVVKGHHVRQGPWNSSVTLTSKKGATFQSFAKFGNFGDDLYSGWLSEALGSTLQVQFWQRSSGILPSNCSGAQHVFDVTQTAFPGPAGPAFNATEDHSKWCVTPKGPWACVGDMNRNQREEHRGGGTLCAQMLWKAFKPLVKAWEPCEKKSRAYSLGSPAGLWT

DNase I (pancreas) = DNase I (pancreas) (Bos taurus, UniProt P00639 P00639:23-282); assay: cleavage_in_vitro; Mg, Ca, 37 C; details: tags: Bethesda Research Laboratories
DNase II (spleen) = molecular target: T3, DNase II (spleen) (Bos taurus, UniProt P56541 P56541:20-365); assay: cleavage_in_vitro; pH 4.6, 25 C; details: tags: Bethesda Research Laboratories
T3 sequence: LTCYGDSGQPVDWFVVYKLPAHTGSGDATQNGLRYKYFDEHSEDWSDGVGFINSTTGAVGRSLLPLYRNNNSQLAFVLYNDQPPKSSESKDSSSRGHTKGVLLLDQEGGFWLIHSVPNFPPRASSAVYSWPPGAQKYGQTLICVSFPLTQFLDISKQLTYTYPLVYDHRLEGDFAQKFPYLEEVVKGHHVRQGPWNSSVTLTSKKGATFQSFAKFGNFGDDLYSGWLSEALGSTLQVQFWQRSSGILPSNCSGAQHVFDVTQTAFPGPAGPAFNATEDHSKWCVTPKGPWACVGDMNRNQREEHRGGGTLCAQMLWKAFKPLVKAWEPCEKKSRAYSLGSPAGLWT

[5] = molecular target: Snake venom phosphodiesterase (3'->5' exonuclease) (Crotalus adamanteus, UniProt J3SEZ3 J3SEZ3:24-851); assay: cleavage_in_vitro; Tris pH 9.0, 37 C; details: tags: Sigma
[6] = molecular target: Venom phosphodiesterase (3'->5' exonuclease) (UniProt J3SEZ3 J3SEZ3:24-851); assay: cleavage_in_vitro; Worthington venom exonuclease; details: tags: Worthington
Sequence of Venom phosphodiesterase (3'->5' exonuclease) (J3SEZ3 24-851, one chain of several): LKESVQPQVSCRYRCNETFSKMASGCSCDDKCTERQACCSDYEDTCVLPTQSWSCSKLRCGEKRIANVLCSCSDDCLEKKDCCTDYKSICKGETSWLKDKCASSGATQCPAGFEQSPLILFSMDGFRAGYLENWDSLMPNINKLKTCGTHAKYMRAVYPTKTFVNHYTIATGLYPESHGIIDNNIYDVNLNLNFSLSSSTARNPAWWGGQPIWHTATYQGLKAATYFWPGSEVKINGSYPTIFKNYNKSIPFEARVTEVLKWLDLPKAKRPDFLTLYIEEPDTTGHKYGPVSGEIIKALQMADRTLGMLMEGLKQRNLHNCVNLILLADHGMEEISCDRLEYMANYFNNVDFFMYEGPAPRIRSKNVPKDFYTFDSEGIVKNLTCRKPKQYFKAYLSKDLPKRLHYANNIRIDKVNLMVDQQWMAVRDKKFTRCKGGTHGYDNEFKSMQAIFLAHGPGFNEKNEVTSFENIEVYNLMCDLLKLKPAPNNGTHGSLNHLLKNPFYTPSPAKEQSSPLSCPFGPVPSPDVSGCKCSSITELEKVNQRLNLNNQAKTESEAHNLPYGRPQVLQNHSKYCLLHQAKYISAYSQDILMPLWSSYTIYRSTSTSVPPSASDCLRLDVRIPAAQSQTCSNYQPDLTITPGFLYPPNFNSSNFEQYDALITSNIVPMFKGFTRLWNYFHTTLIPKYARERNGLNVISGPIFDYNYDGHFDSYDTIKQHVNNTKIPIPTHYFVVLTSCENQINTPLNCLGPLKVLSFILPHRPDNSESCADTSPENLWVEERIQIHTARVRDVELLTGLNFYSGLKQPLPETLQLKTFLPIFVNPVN

Sequence of Snake venom phosphodiesterase (3'->5' exonuclease) (J3SEZ3 24-851, one chain of several): as above
Sequence of E. coli RNase H (P0A7Y4 whole entry): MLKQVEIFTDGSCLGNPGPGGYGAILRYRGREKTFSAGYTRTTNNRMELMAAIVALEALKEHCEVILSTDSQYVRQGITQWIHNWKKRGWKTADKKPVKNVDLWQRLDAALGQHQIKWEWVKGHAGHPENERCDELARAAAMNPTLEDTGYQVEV
Sequence of DNase I (pancreas) (P00639 23-282, one chain of several): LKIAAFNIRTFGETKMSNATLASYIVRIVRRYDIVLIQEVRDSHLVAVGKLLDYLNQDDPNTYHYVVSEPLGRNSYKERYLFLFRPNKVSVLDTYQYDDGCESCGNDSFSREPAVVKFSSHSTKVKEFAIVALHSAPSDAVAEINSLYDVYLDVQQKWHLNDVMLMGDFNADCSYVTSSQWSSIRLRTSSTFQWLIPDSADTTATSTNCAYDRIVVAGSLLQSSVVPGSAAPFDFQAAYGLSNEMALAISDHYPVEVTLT

## TGACTTAGCTGCAT [14-Me^5b-3] (chemistry not given here)
E. coli RNase H
  ability to form RNase H substrate, 14-mer binding site: able to form RNase H substrates
B95-8 cells
  3′-exonucleolytic cleavage in tissue culture: absence of cleavage
  Tissue Culture Stabilities, Relative Half-Life, +FCS. B95-8: 30

## ATGCAGCTAAGTCA [14-P-4] (chemistry not given here) [Oligomer 14-P-4]
[1]
  Exonuclease Relative Half-Life, Venom (3′->5′-): 1

## TGACTTAGCTGCAT [14-A-3]
[2]; 3' methylphosphonate linkage at A3,A7,A13, >>200
  activity (relative half-life): > 200

## TGACTTAGCTGCAT [14-Me^6b-3] (chemistry not given here)
B95-8 cells
  3′-exonucleolytic cleavage in tissue culture: absence of cleavage
  Tissue Culture Stabilities, Relative Half-Life, +FCS. B95-8: 30

## ATGCAGCTAAGTCA [14-T-4] (chemistry not given here) [Oligomer 14-T-4]
[3]
  observation after spleen exonuclease digestion (electrophoretic mobility of the hybrid): apparently shortened

## TGACTTAGCTGCAT [14-Me^5a-3] (chemistry not given here)
E. coli RNase H
  ability to form RNase H substrate, 14-mer binding site: able to form RNase H substrates
B95-8 cells
  3′-exonucleolytic cleavage in tissue culture: single stepwise cleavage
  Tissue Culture Stabilities, Relative Half-Life, +FCS. B95-8: 30

## ATGCAGCTAAGTCA (chemistry not given here) [Oligomer 14-C-4]
[3]
  observation after spleen exonuclease digestion (electrophoretic mobility of the hybrid): apparently shortened

## ATGCAGCTAAGTCA (chemistry not given here) [14-C/T-4]
[4]
  increase in half-life as compared to 14-C-4: two-fold

## ATGCAGCTAAGTCA [14-G-4] (chemistry not given here) [Oligomer 14-G-4]
[3]
  observation after spleen exonuclease digestion (electrophoretic mobility of the hybrid): apparently shortened

## ATGCAGCTAAGTCA [14-C-4]
[2]; 3' methylphosphonate linkage at C4,C7,C13, all modified oligos tested more than 200 times as resistant, apparently shortened
  activity (relative half-life): > 200

## ATGCAGCTAAGTCA [14-G-4]
[2]; 3' methylphosphonate linkage at G3,G6,G11, >>200, apparently shortened
  activity (relative half-life): > 200

## TGACTTAGCTGCAT (chemistry not given here) [Oligomer 14-P-3]
Bovine spleen DNase II; bovine
  half-life for digestion by DNase II: 10 h
Bovine spleen DNase II; pH 4.6
  Endonuclease Relative Half-Life, DNase II: 1
B95-8 cells
  Tissue Culture Stabilities, Relative Half-Life, +FCS. B95-8: 1

## ATGCAGCTAAGTCA [14-P-4]
[2]; half-time about 30 min, citrate pH 6.0, 37 C
  activity (relative half-life): 1

## TGACTTAGCTGCAT [14-P-3]
[2]; half-time about 30 min, citrate pH 6.0, 5 mM EDTA, 37 C
  activity (relative half-life): 1

## ATGCAGCTAAGTCA [14-T-4]
[2]; 3' methylphosphonate linkage at T2,T8,T12, >>200, apparently shortened
  activity (relative half-life): > 200

## TGACTTAGCTGCAT [14-C-3] (chemistry not given here) [Oligomer 14-C-3]
E. coli RNase H
  ability to form RNase H substrate, 14-mer binding site: formed RNase H substrates

## TGACTTAGCTGCAT [14-Me^6a-3] (chemistry not given here)
E. coli RNase H
  ability to form RNase H substrate, 14-mer binding site: did not
B95-8 cells
  3′-exonucleolytic cleavage in tissue culture: single stepwise cleavage
  Tissue Culture Stabilities, Relative Half-Life, +FCS. B95-8: 30

## TGACTTAGCTGCAT [14-A-3] (chemistry not given here) [Oligomer 14-A-3]
E. coli RNase H
  ability to form RNase H substrate, 14-mer binding site: formed RNase H substrates

## TGACTTAGCTGCAT [14-C-3]
[2]; 3' methylphosphonate linkage at C4,C9,C12, >>200
  activity (relative half-life): > 200

## TGACTTAGCTGCAT [14-Me6a-3]
[2]; 3' methylphosphonate linkage at positions 2,4,6,8,10,12, >>200
  activity (relative half-life): > 200

## TGACTTAGCTGCAT [14-P-3] (chemistry not given here) [Oligomer 14-P-3, reference compound]
E. coli RNase H
  ability to form RNase H substrate, 14-mer binding site: formed RNase H substrates
[1]
  Exonuclease Relative Half-Life, Venom (3′->5′-): 1

## CTGGGGCTGCAT [12-Me^5a-1]
E. coli RNase H; NcoI runoff transcript
  ability to form RNase H substrate / cleavage of RNA, 12-mer binding site: permitted cleavage of most of the RNA

## TGACTTAGCTGCAT (ssDNA, 3' methylphosphonate linkage at positions 2,4,6,8,13) [14-Me5b-3]
DNase I (pancreas)
  activity: 12 relative half-life
DNase II (spleen)
  activity: > 5 relative half-life

## TGACTTAGCTGCAT (ssDNA, 3' methylphosphonate linkage at positions 2,4,6,10,12) [14-Me5a-3]
DNase I (pancreas)
  activity: 300 relative half-life
DNase II (spleen)
  activity: > 5 relative half-life

## TGACTTAGCTGCAT (ssDNA, 3' methylphosphonate linkage at positions 2,4,6,9,11,13) [14-Me6b-3]
DNase I (pancreas)
  activity: > 600 relative half-life
DNase II (spleen)
  activity: > 5 relative half-life

## TGACTTAGCTGCAT (ssDNA, 3' methylphosphonate linkage at positions 2,4,6,8,10,12) [14-Me6a-3]
DNase I (pancreas)
  activity: > 600 relative half-life
DNase II (spleen)
  activity: > 5 relative half-life

## TGACTTAGCTGCAT (ssDNA, 3' methylphosphonate linkage at C4,C9,C12) [14-C-3]
[5]
  activity: > 500 relative half-life
DNase I (pancreas)
  activity: 6 relative half-life
DNase II (spleen)
  activity: 2 relative half-life

## ATGCAGCTAAGTCA (ssDNA, 3' methylphosphonate linkage at G3,G6,G11) [14-G-4]
[5]
  activity: 100 relative half-life

## ATGCAGCTAAGTCA (ssDNA, 3' methylphosphonate linkage at T2,T8,T12) [14-T-4]
[5]
  activity: > 500 relative half-life

## ATGCAGCTAAGTCA (ssDNA, 3' methylphosphonate linkage at T12,C13) [14-C/T-4]
[6]
  activity: ~2 half-life relative to 14-C-4

## TGACTTAGCTGCAT (ssDNA, 3' methylphosphonate linkage at A3,A7,A13) [14-A-3]
DNase II (spleen)
  activity: > 5 relative half-life
